Data: patent US12622859B2, “Organic compounds” (GIVAUDAN SA, priority 2017, dated 2026)

Legend:
Solubility in water = format: physicochemical
Description: (§1) Consequently, the extract is preferably obtained by extracting the compounds from plant material using an alcohol, and more particularly ethanol. It is particularly preferred if the alcohol is water-free.

Stability in water = format: physicochemical
Description: as §1

C[C@@H]1O[C@@H](O[C@@H]2[C@H]3O[C@@H](c4ccc(O)c(O)c4)CO[C@@H]3O[C@H](CO)[C@H]2OC(=O)/C=C/c2ccc(O)c(O)c2)[C@H](O)[C@H](O)[C@H]1O [crenatoside]
solubility in water (Solubility in water): water-soluble | stability in water (Stability in water): unstable in water

C[C@@H]1O[C@@H](O[C@@H]2[C@@H](O)[C@H](OCCc3ccc(O)c(O)c3)O[C@H](CO)[C@H]2OC(=O)/C=C/c2ccc(O)c(O)c2)[C@H](O)[C@H](O)[C@H]1O [acteoside]
solubility in water (Solubility in water): water-soluble | stability in water (Stability in water): unstable in water
